Consider 1 compound from paper PMC6892276 (European Journal of Pharmaceutical Sciences, 2019).

A short description of data set [1]: Protein binding in rCYP (Rapid Equilibrium Dialysis). It counts as in vitro ADME. As to conditions: human, control rCYP 100 pmol/ml, dialysis 4 h at 37 °C, read-out: fuCYP (fraction unbound in rCYP). The protocol:
Samples were removed, matrix matched and quenched with methanol containing internal standard; further processing is as described in Section 2.6.
The fraction unbound (fu) in HLM/rCYP was calculated using Eq. (5).(5) fu=1/1+1/PARreceiver/PARdonor−1 where PAR = Peak Area Ratio of analyte/internal standard.
Background: In equilibrium dialysis only unbound substance equilibrates across the membrane.

A short description of data set [2]: CLint in rat liver microsomes. In kind it is in vitro ADME. The following applies: Sprague Dawley, female, 1 mg/ml, NADPH. The protocol: (§1) All incubations of subcellular fractions and recombinant enzymes were conducted at 37 °C and 800 rpm using a Hamilton Microlab Star liquid handling workstation (Hamilton Robotics (Bonaduz, Switzerland)).
(§2) Prior to initiation of the reaction by the addition of NADPH (final concentration 1 mM), an aliquot was removed from each incubation and quenched in ice cold methanol containing internal standard (referred to as T0). NADPH was subsequently added to this solution for matrix matching. The remaining reaction (with addition of NADPH) was allowed to proceed for 60 min. At 0.5, 5, 15, 30 and 60 min aliquots were sampled and quenched as above. Incubations were conducted in singlicate; control incubations (substituting PBS for NADPH) were conducted simultaneously.
(§3) For the purpose of CLint determination, samples were analysed using an Agilent 1290 Infinity ultra high-performance liquid chromatography (UHPLC) system coupled to an Agilent 6520 Quadrupole Time-of-flight mass spectrometer (Agilent Technologies, Stockport, UK). […]
(§4) In vitro data (parent compound LC-MS response) was fitted to a non-linear single exponential model using the software GraphPad Prism (v6.07, GraphPad Software, Inc., La Jolla, USA) to determine the elimination rate constant (k). CLint in hepatocytes and liver microsomes was calculated using Eqs. […]

Another data set has as its system CYP1A2. Details: method as in Bavetsias et al., 2012. As to conditions: ref Bavetsias et al., 2012; read-out: CYP1A2 inhibition IC50; cited from earlier work.
Data set [3] is described as follows: CLint in human liver microsomes. In kind it is in vitro ADME. As to conditions: both sexes, mixed sex, 1 mg/ml, NADPH. The protocol: as §1, §2, §3, §4
Unbound CLint (CLint,u) was calculated using Eq. (6).(6) CLint,u=CLint/fu
Background: Liver microsomes are a subcellular fraction often used to study metabolism.

The next data set has as its system hERG. Details: method as in Bavetsias et al., 2012. As to conditions: ref Bavetsias et al., 2012; read-out: hERG blockade IC50; cited from earlier work.
On the set-up of data set [4]: method as in Bavetsias et al., 2012. As to conditions: rat; ref Bavetsias et al., 2012; cited from earlier work.
Data set [5] in a line: CLint in mouse liver microsomes. In kind it is in vitro ADME. As to conditions: ICR/CD-1, liver microsomes, female, 1 mg/ml, NADPH. The protocol: as §1, §2, §3, §4
A further data set concerns MV4-11 xenograft. More on the design: method as in Bavetsias et al., 2012. As to conditions: MV4-11 xenograft mouse model; ref Bavetsias et al., 2012; cited from earlier work.
Another data set relates to CYP2D6. Details: method as in Bavetsias et al., 2012. As to conditions: ref Bavetsias et al., 2012; read-out: CYP2D6 inhibition IC50; cited from earlier work.
Another data set deals with CYP2A6. More on the design: method as in Bavetsias et al., 2012. As to conditions: ref Bavetsias et al., 2012; read-out: CYP2A6 inhibition IC50; cited from earlier work.
Data set [6] has as its system histone H-3 and STAT5 phosphorylation. More on the design: method as in Bavetsias et al., 2012. The following applies: p.o. 50 and 100 mg/kg b.i.d., 4-day mouse PK/PD study; ref Bavetsias et al., 2012; cited from earlier work.
The subject of data set [7] is HCT116 (human colon carcinoma). More on the design: method as in Bavetsias et al., 2012. The following applies: ref Bavetsias et al., 2012; cited from earlier work.
A further data set has as its system Caco-2. More on the design: method as in Bavetsias et al., 2012. The following applies: ref Bavetsias et al., 2012, cited from earlier work.
The next data set deals with CYP2C19. More on the design: method as in Bavetsias et al., 2012. The following applies: ref Bavetsias et al., 2012; read-out: CYP2C19 inhibition IC50; cited from earlier work.
The nature of data set [8]: CLint in cryopreserved human hepatocyte suspensions. The following applies: both sexes, pH 7.4, mixed sex. It counts as in vitro ADME. The procedure: Cells were stored in the vapour phase of liquid nitrogen and thawed as per the supplier's instructions (rapid thawing at 37 °C, followed by centrifugation at 50 ×g for 5 min in thawing medium). Hepatocytes were re-suspended in a small volume of incubation medium (WME buffered with HEPES (final concentration 24 mM) adjusted to pH 7.4). Cell density was estimated using a haemocytometer and light microscope and viability determined according to the trypan blue exclusion method; cells were subsequently diluted to the required concentration in incubation medium. […]
as §3, §4

What is called fraction unbound is free concentration divided by total concentration. As usually defined, the microsomal CLint is the capacity of the preparation to metabolise the compound, expressed as a volume cleared per time. Lower therefore signals greater metabolic stability. A word on the IC50: it is the concentration that inhibits the measured activity by half. A word on the clearance: it is a measure of how efficiently the substance is removed, as volume per time. What is called hepatocyte CLint is a measure of how fast metabolising enzymes remove a compound, apart from limits set by blood flow. Read a low hepatocyte CLint as greater metabolic stability. Consider `Cc1nn(C)cc1-c1nc2c(N3CCN(Cc4ccc(Cl)cc4)CC3)c(Cl)cnc2[nH]1` [CCT241736, 6-Chloro-7-(4-(4-chlorobenzyl)piperazin-1-yl)-2-(1,3-dimethyl-1Hpyrazol-4-yl)-3H-imidazo[4,5-b] pyridine], for which, in [1], the fraction unbound at 4 h, 1 μM is 0.0094. In addition, the figures for the microsomal CLint at 1 μM in [2], in data set [3] and in data set [5] were 2.7 ± 1.8 µL/min/mg, […] and 53 ± 4.1 µL/min/mg, respectively. Also, the IC50 was […] with CYP1A2; over 25 µM in the data set with hERG; […] in the data set on CYP2D6; […] in the data set on CYP2A6; […] in the data set on CYP2C19. In [4], the clearance is 4.57 mL/min/kg. Also, in the data set on MV4-11 xenograft, the “inhibition of tumour growth” value is “strong inhibition of tumour growth”. In [6], the “biomarker modulation (histone H-3 and STAT5 phosphorylation)” value was “biomarker modulation”. Further, the anti-proliferative activity entry in data set [7] is “anti-proliferative activity”. Besides, the efflux result with Caco-2 (Caco-2) was “no evidence of efflux”. For the same compound, in the data set on Caco-2, the Caco-2 permeability was […]. The hepatocyte CLint at 1 μM in data set [8] is […].
